The results in this text go back to ChEMBL document CHEMBL5357036, “Latest developments in coumarin-based anticancer agents: mechanism of action and structure-activity relationship studies” (RSC Med Chem, 2024).

One data set has as its system SK-OV-3. Nature of the data set: Growth inhibition of human SK-OV-3 cells assessed as reduction in cell viability measured after 3 days by CCK-8 assay. The data set is classed as functional. Particulars: SK-OV-3, 72 h, time 3 day. For orientation: Formazan colour is commonly taken as a measure of viable cells.
The subject of another data set is SN12C. As to the kind of experiment: Growth inhibition of human SN12C cells assessed as reduction in cell viability measured after 3 days by CCK-8 assay. The format is functional. Particulars: 72 h, time 3 day.
The subject of data set [1] is HeLa. Nature of the data set: Growth inhibition of human HeLa cells assessed as reduction in cell viability measured after 3 days by CCK-8 assay. The format is functional. The following applies: 72 h, time 3 day.
The next data set concerns OVCAR-8. As to the kind of experiment: Growth inhibition of human OVCAR-8 cells assessed as reduction in cell viability measured after 3 days by CCK-8 assay. The data set is classed as functional. Particulars: OVCAR-8, 72 h, time 3 day.
In data set [2] the test system is HepG2. As to the kind of experiment: Growth inhibition of human HepG2 cells assessed as reduction in cell viability measured after 3 days by CCK-8 assay. The format is functional. The following applies: HepG2, 72 h, time 3 day.
Another data set concerns BXPC-3. Nature of the data set: Growth inhibition of human BXPC-3 cells assessed as reduction in cell viability measured after 3 days by CCK-8 assay. The data set is classed as functional. The following applies: BXPC-3, 72 h, time 3 day.
Another data set has as its system SNU1. Nature of the data set: Growth inhibition of human SNU1 cells assessed as reduction in cell viability measured after 3 days by CCK-8 assay. The data set is classed as functional. The following applies: SNU1, 72 h, time 3 day.
The test system of the next data set is WiDr. Nature of the data set: Growth inhibition of human WiDr cells assessed as reduction in cell viability measured after 3 days by CCK-8 assay. The data set is classed as functional. Particulars: 72 h, time 3 day.
The subject of another data set is T-24. As to the kind of experiment: Growth inhibition of human T24 cells assessed as reduction in cell viability measured after 3 days by CCK-8 assay. The format is functional. Particulars: T-24, 72 h, time 3 day.
Another data set has as its system AGS. As to the kind of experiment: Growth inhibition of human AGS cells assessed as reduction in cell viability measured after 3 days by CCK-8 assay. The data set is classed as functional. Particulars: 72 h, time 3 day.
For data set [3], the system named is K562. As to the kind of experiment: Growth inhibition of human K562 cells assessed as reduction in cell viability measured after 3 days by CCK-8 assay. The data set is classed as functional. Particulars: K562, 72 h, time 3 day.
For the next data set, the system named is PANC-1. As to the kind of experiment: Growth inhibition of human PANC-1 cells assessed as reduction in cell viability measured after 3 days by CCK-8 assay. Particulars: PANC-1, 72 h, time 3 day. The format is functional.
Data set [4] deals with KATO III stomach cancer cell line. Nature of the data set: Growth inhibition of human KATO III stomach cancer cell line assessed as reduction in cell viability measured after 3 days by CCK-8 assay. The following applies: 72 h, time 3 day. The format is functional.
Data set [5] deals with HeLa. Nature of the data set: Antiproliferative activity against human HeLa cells assessed as inhibition of cell growth incubated for 72 hrs by MTT assay. The format is functional, cell-based.
Data set [6] deals with MCF7. As to the kind of experiment: Cytotoxicity against human MCF7 cells assessed as reduction in cell growth by MTT assay. The data set is classed as functional, cell-based.
The subject of a further data set is DLD-1. As to the kind of experiment: Anticancer activity against human DLD-1 cells assessed as reduction in cell viability. The data set is classed as functional, cell-based.
Data set [7] relates to HeLa. Nature of the data set: Antiproliferative activity against human HeLa cells assessed as reduction in cell viability. The format is functional, cell-based.
The subject of data set [8] is HeLa. Nature of the data set: Cytotoxicity against human HeLa cells assessed as cell growth inhibition incubated for 72 hrs by MTT colorimetric assay. The format is functional, cell-based.
Data set [9] has as its system K562. As to the kind of experiment: Cytotoxicity against human K562 cells assessed as cell growth inhibition incubated for 72 hrs by MTT colorimetric assay. The format is functional, cell-based. Particulars: K562, 72 h.
The test system of data set [10] is A549. As to the kind of experiment: Cytotoxicity against human A549 cells assessed as cell growth inhibition incubated for 72 hrs by MTT colorimetric assay. The format is functional, cell-based. The following applies: A549, 72 h.
The test system of data set [11] is MDA-MB-231. As to the kind of experiment: Cytotoxicity against human MDA-MB-231 cells assessed as cell growth inhibition incubated for 72 hrs by MTT colorimetric assay. The data set is classed as functional, cell-based. The following applies: MDA-MB-231, 72 h.
The test system of data set [12] is MDA-MB-231. As to the kind of experiment: Cytotoxicity against human MDA-MB-231 cells assessed as cell growth inhibition by SRB assay. The format is functional, cell-based. (In general: Sulforhodamine B stains cellular protein and so reports cell mass.)
In data set [13] the target is Cyclin-dependent kinase inhibitor 1 (p21) (human) (UniProt P38936). Nature of the data set: Upregulation of p21 gene expression in human HeLa cells assessed fold increase by RT-PCR analysis.
Data set [14] has as its system A549. As to the kind of experiment: Cytotoxicity against human A549 cells assessed as reduction in cell growth by MTT assay. The format is functional, cell-based.
Data set [15] has as its system MDA-MB-231. Nature of the data set: Anticancer activity against human MDA-MB-231 cells assessed as reduction in cell viability measured after 72 hrs by MTT assay. The data set is classed as functional, cell-based. Particulars: MDA-MB-231, 72 h.
Data set [16] has as its system HepG2. As to the kind of experiment: Anticancer activity against human HepG2 cells assessed as reduction in cell viability. The format is functional, cell-based.
A short description of data set [17]: Cytotoxicity against green monkey COS-7 cells. The format is toxicity, cell-based. The following applies: green monkey (Chlorocebus aethiops).
The subject of data set [18] is HeLa. Nature of the data set: Antitumor activity against human HeLa cells assessed as inhibition of cell growth by MTT assay. The format is functional, cell-based.
For data set [19], the system named is HeLa. Nature of the data set: Cytotoxicity against human HeLa cells assessed as reduction in cell growth by MTT assay. The format is functional, cell-based.
Data set [20] deals with MCF7. As to the kind of experiment: Cytotoxicity against human MCF7 cells assessed as reduction in cell growth measured after 48 hrs by MTT assay. The format is functional, cell-based. Particulars: MCF7, 48 h.
The subject of data set [21] is A549. Nature of the data set: Cytotoxicity against human A549 cells assessed as reduction in cell growth measured after 48 hrs by MTT assay. The data set is classed as functional, cell-based. The following applies: A549, 48 h.
Data set [22] has as its system HeLa. Nature of the data set: Cytotoxicity against human HeLa cells assessed as reduction in cell growth measured after 48 hrs by MTT assay. The format is functional, cell-based.
The nature of data set [23]: Anticancer activity against human SK-MEL-128 cells assessed as cell growth inhibition. The format is functional, cell-based.
Another data set concerns DU-145. Nature of the data set: Anticancer activity against human DU-145 cells assessed as cell growth inhibition. The data set is classed as functional, cell-based.
Data set [24] has as its system A549. Nature of the data set: Antiproliferative activity against human A549 cells assessed as reduction in cell viability by MTS assay. The data set is classed as functional, cell-based.
Another data set relates to BT-20. As to the kind of experiment: Anticancer activity against human BT-20 cells assessed as cell growth inhibition. The data set is classed as functional, cell-based.

The structures appear in SMILES notation. Converted amounts (≈) assume the structure as drawn. Bounds are passed on as bounds.

A word on the GI50: it is the concentration at which growth is held to half of that of the control. For the compound `CCN(CC)c1ccc2cc(-c3nc4ccccc4n3C)c(=O)oc2c1`, the GI50 in the data set on SK-OV-3, in the data set with SN12C, in the data set with HeLa [1], with OVCAR-8, in the data set with HepG2 [2] and in the data set with BXPC-3 was below 0.41 µM in each case. For the same compound, the GI50 in the data set on SNU1, with WiDr, in the data set with T-24, in the data set with AGS, in the data set with K562 [3] and with PANC-1 was below 0.41 µM in each case. The GI50 in data set [4] was below 0.41 µM.

What is called IC50 is the concentration that inhibits the measured activity by half. On to `Cc1nn(-c2ccccc2)c(=O)n1-n1c(-c2cc3ccccc3oc2=O)cs/c1=N\c1ccc(Cl)cc1`, for which, in the data set on HeLa [5], the IC50 stood at 0.21 µM.

On to `Cc1c(Cc2ccc(NC(=O)Nc3ccc(Br)cc3)nc2)c(=O)oc2cc(O)c(C(C)(C)C)cc12`, for which the IC50 in the data set with MCF7 [6] turned out to be 2.56 µM.

Broadly, the EC50 is the concentration giving half of the maximal effect. With `COc1ccc(/C(C)=N/Nc2ncc(C(=O)c3cc4ccccc4oc3=O)s2)cc1`, the EC50 with DLD-1 was determined as 5.79 µM.

As for `CCOC(=O)c1sc(N/N=C(\C)c2cc3cc(Br)ccc3oc2=O)nc1C`, the IC50 with HeLa [7] was found to be 0.009 µM.

On to `COc1ccc(-n2nc(C)n(-n3c(-c4cc5ccccc5oc4=O)cs/c3=N\c3ccc(Cl)cc3)c2=O)cc1`, for which the IC50 with HeLa [8] was 0.25 µM; in the data set with K562 [9], 0.31 µM; in the data set with A549 [10], 0.17 µM; with MDA-MB-231 [11] it was 0.16 µM; in the data set with MDA-MB-231 [12], 0.16 µM.

Regarding `CCOC(=O)c1sc(N/N=C(\C)c2cc3ccccc3oc2=O)nc1C`, the “fold change (FC)” value in [13] stood at 2.3.

For the compound `Cc1c(Cc2ccc(NC(=O)Nc3ccccc3Cl)nc2)c(=O)oc2cc(O)c(C(C)(C)C)cc12`, the IC50 in the data set with A549 [14] is 4.38 µM.

Consider `COC(=O)c1cc2cc(-c3nc4cc(C)ccn4c3NC(C)(C)C)cc(C(C)C)c2oc1=O`, for which the IC50 in the data set on MDA-MB-231 [15] was 14.1 µM.

In the case of `C/C(=N\Nc1ncc(C(=O)c2cc3ccccc3oc2=O)s1)c1ccc(C)cc1`, the EC50 in the data set with HepG2 [16] is 3.7 µM.

For the compound `O=c1oc2ccccc2cc1-c1csc(N/N=C/c2c3ccccc3c(Cl)c3ccccc23)n1`, the IC50 in data set [17] turned out to be 1.66 µM; in the data set with HeLa [18], 1.29 µM.

With `Cc1c(Cc2ccc(NC(=O)Nc3cccc(Cl)c3)nc2)c(=O)oc2cc(O)c(C(C)(C)C)cc12`, the IC50 with HeLa [19] is 2.17 µM.

`COc1ccc2oc(=O)c(/C=C3\SC(=O)N(C(=O)c4ccc(Cl)cc4)C3=O)cc2c1`: the IC50 in the data set on MCF7 [20], in the data set with A549 [21] and with HeLa [22] was 0.95 µM throughout.

With `Nn1c(Cc2ccc(Cl)c(Cl)c2)nn(CC(=O)NNC(=O)c2cc3cc(Cl)ccc3oc2=O)c1=O`, the figures for the IC50 (in data set [23]; in the data set on DU-145) were 12.3 µg/mL (≈ 22.9 µM) and 3.7 µg/mL (≈ 6.88 µM), respectively.

On to `Nn1c(Cc2ccc(Cl)cc2)nn(CC(=O)NNC(=O)c2cc3cc(Cl)cc(Cl)c3oc2=O)c1=O`, for which the IC50 with A549 [24] came out at 7.5 µg/mL (≈ 13.9 µM).

As to `Nn1c(Cc2ccccc2Br)nn(CC(=O)NNC(=O)c2cc3cc(Cl)cc(Cl)c3oc2=O)c1=O`, the IC50 in the data set on BT-20 came to 6.4 µg/mL (≈ 11 µM).
